Measured values reported in patent US6399745B1, “Use of leptin antagonists for treating insulin resistance in type II diabetes” (Aventis Pharma Deutschland GmbH, priority 1996, dated 2002).

Columns and labels:
isolated rat adipocytes [1] = assay: Glucose transport (2-deoxyglucose uptake) in isolated rat adipocytes after primary culture with leptin, basal and insulin-stimulated; type: cell-based; conditions: for Glucose Transport, stimulation factor for insulin (stimulated/basal): Insulin concentration: 5 nM
Experimental: Adipocytes were prepared from the epididymal fat tissue of male Wistar rats (140-160 g, Hoechst AG breeding station, Kastengrund) by means of digesting with collagenase (Rodbell, 1964, J. Biol. Chem. 239, 375-380), washed twice with KRH (25 mM Hepes free acid, 25 mM Hepes sodium salt, 80 mM NaCl, 1 mM MgSO4, 2 mM CaCl2, 6 mM KCl, 1 mM sodium pyruvate, 0.5% BSA) and once with DMEM (Dulbecco's minimal essential medium), supplemented with 5.5 mM glucose, 20 mM Hepes (pH 7.4), 2% fetal calf serum, 1% BSA, 50 U of penicillin/ml, […], by means of flotation (800×g, 1 min, in small plastic tubes), and finally diluted to a volume of 20 ml of DMEM/g wet weight of the fat tissue (cell titer: approximately 2.5×10^5 cells/ml).
The adipocytes were incubated, at 37° C. for 15-18 h under an atmosphere of 5% CO2 and with gentle shaking, in supplemented (see above) DMEM in the presence of 100 nM phenylisopropyladenosine (4 ml of DMEM to 1 ml of cells, cell titer approximately 5×10^4 cell/ml, in 50 ml sterile polypropylene: tubes) and in the presence or absence of leptin. The adipocytes were subsequently washed three times with cold KRH and adjusted to a cell titer of approximately 3×10^5 cells/ml by adding 0.7 ml of glucose-free KRH to the cell layer which remained after the complete removal of the last washing solution. In order to determine the capacity of the adipocytes to be stimulated by insulin, and their sensitivity to insulin, following the primary culture, the washed adipocytes were incubated at 37° C. for 20 min in the absence or presence of human insulin (0.02-50 nM final concentration), and glucose transport or lipogenesis was then measured.
Glucose transport was measured as the specific uptake of the non-metabolizable glucose analog 2-deoxyglucose (Muller and Wied, 1993, Diabetes 42, 1852-1867). 50 μl of the adipocyte suspension in KRH, which suspension had or had not been preincubated with insulin (see above), were incubated, at 25° C. for 5 min, with 50 μl of KRH which was supplemented with 2-deoxy-D-[2,6-^3H]glucose (0.5 μCi, 0.2 mM). The incubation mixtures were transferred to thin soft-plastic centrifuge tubes, each of which already contained 200 μl of dinonyl phthalate oil, and immediately centrifuged (2,000×g, 30 sec). Using special shears, the tubes were severed within the oil layer (in the vicinity of the upper edge) and the upper halves of the tubes, together with the cell layers which had in each case been floated onto the oil layer, were transferred to scintillation vials. After 10 ml of scintillation fluid (water-based) had been added, the radioactivity associated with the cells was measured. In order to correct for 2-deoxyglucose which had become enclosed in the cell interstices, or had diffused into the cells, in a non-specific manner, the radioactivity of cells which had been preincubated with cytochalasin B (20 μM) was subtracted from the total cell-associated radioactivity of each individual incubation mixture (Gliemann et al., 1972, Biochim. Biophys. Acta 286, 1-9).
Isolated rat adipocytes were incubated for 15 h in primary culture in the presence or absence of increasing concentrations of leptin. […] The stimulation factor for insulin was calculated as the ratio between insulin-stimulated and basal activities. Each value represents the mean from two independent adipocyte cultures with activity being determined two or three times in each case.
The cells were then washed and tested for the stimulation of glucose transport by differing concentrations of insulin. Glucose transport activity is given as a “dpm value” of the 2deoxy-[^3H]glucose which is specifically associated with the cells. Each value represents the mean from two independent adipocyte cultures with the activity being determined four times in each case.

isolated rat adipocytes [2] = assay: Insulin stimulation of glycogenesis in isolated rat adipocytes under leptin; type: cell-based; conditions: basal values unaffected
ob/ob mice = conditions: injection; cited from earlier work
[3] = test system: insulin receptor and insulin receptor substrate 1 (IRS-1); conditions: rat 1 fibroblasts overexpressing human insulin receptor; cited from earlier work
C2C12 mouse myotubes = conditions: cited from earlier work

With Leptin the “leptin concentration at which effects can already be detected in vitro” value (isolated rat adipocytes [1]; insulin dose/effect curves at different leptin concentrations) was 0.5 to 1 nM, the “glucose transport, uptake of 3H-labeled 2-deoxyglucose” value (shortened to “glucose transport, uptake”) (isolated rat adipocytes [1]; leptin 0.05 nM 16.5 h, insulin 0.02 nM) was 735 dpm and the “glucose transport, uptake” value (isolated rat adipocytes [1]; leptin 0.05 nM 16.5 h, insulin 0.05 nM) was 1025 dpm. For the same substance, the “glucose transport, uptake” value (isolated rat adipocytes [1]; leptin 0.05 nM 16.5 h, insulin 0.1 nM) was 1674 dpm, the “glucose transport, uptake” value (isolated rat adipocytes [1]; leptin 0.05 nM 16.5 h, insulin 0.2 nM) was 3320 dpm and the “glucose transport, uptake” value (isolated rat adipocytes [1]; leptin 0.05 nM 16.5 h, insulin 0.5 nM) was 5138 dpm. The “glucose transport, uptake” value (isolated rat adipocytes [1]; leptin 0.05 nM 16.5 h, insulin 1 nM) was 6834 dpm, the “glucose transport, uptake” value (isolated rat adipocytes [1]; leptin 0.05 nM 16.5 h, insulin 2 nM) was 7942 dpm and the “glucose transport, uptake” value (isolated rat adipocytes [1]; leptin 0.05 nM 16.5 h, insulin 5 nM) was 8794 dpm. For the same substance, the “glucose transport, uptake” value (isolated rat adipocytes [1]; leptin 0.05 nM 16.5 h, insulin 10 nM) was 9134 dpm, the “glucose transport, uptake” value (isolated rat adipocytes [1]; leptin 0.05 nM 16.5 h, insulin 50 nM) was 9189 dpm and the “glucose transport, uptake” value (isolated rat adipocytes [1]; leptin 0.05 nM 16.5 h, no insulin (basal)) was 654 dpm. The “Glucose Transport, stimulation factor for insulin (stimulated/basal)” value (“Glucose Transport … (stimulated/basal)” for short) (isolated rat adipocytes [1]; leptin 0.3 nM 15 h) was 13.4, the “Glucose Transport … (stimulated/basal)” value (isolated rat adipocytes [1]; leptin 1 nM 15 h) was 11.75 and the “glucose transport, uptake” value (isolated rat adipocytes [1]; leptin 1 nM 16.5 h, insulin 0.02 nM) was 678 dpm. For the same substance, the “glucose transport, uptake” value (isolated rat adipocytes [1]; leptin 1 nM 16.5 h, insulin 0.05 nM) was 824 dpm, the “glucose transport, uptake” value (isolated rat adipocytes [1]; leptin 1 nM 16.5 h, insulin 0.1 nM) was 1189 dpm and the “glucose transport, uptake” value (isolated rat adipocytes [1]; leptin 1 nM 16.5 h, insulin 0.2 nM) was 1587 dpm. The “glucose transport, uptake” value (isolated rat adipocytes [1]; leptin 1 nM 16.5 h, insulin 0.5 nM) was 2180 dpm, the “glucose transport, uptake” value (isolated rat adipocytes [1]; leptin 1 nM 16.5 h, insulin 1 nM) was 3904 dpm and the “glucose transport, uptake” value (isolated rat adipocytes [1]; leptin 1 nM 16.5 h, insulin 2 nM) was 5510 dpm. For the same substance, the “glucose transport, uptake” value (isolated rat adipocytes [1]; leptin 1 nM 16.5 h, insulin 5 nM) was 6985 dpm, the “glucose transport, uptake” value (isolated rat adipocytes [1]; leptin 1 nM 16.5 h, insulin 10 nM) was 8241 dpm and the “glucose transport, uptake” value (isolated rat adipocytes [1]; leptin 1 nM 16.5 h, insulin 50 nM) was 8932 dpm. The “glucose transport, uptake” value (isolated rat adipocytes [1]; leptin 1 nM 16.5 h, no insulin (basal)) was 634 dpm, the “glucose transport, uptake” value (isolated rat adipocytes [1]; leptin 2 nM 16.5 h, insulin 0.02 nM) was 704 dpm and the “glucose transport, uptake” value (isolated rat adipocytes [1]; leptin 2 nM 16.5 h, insulin 0.05 nM) was 755 dpm. The “glucose transport, uptake” value (isolated rat adipocytes [1]; leptin 2 nM 16.5 h, insulin 0.1 nM) was 860 dpm, the “glucose transport, uptake” value (isolated rat adipocytes [1]; leptin 2 nM 16.5 h, insulin 0.2 nM) was 1006 dpm and the “glucose transport, uptake” value (isolated rat adipocytes [1]; leptin 2 nM 16.5 h, insulin 0.5 nM) was 1377 dpm. For the same substance, the “glucose transport, uptake” value (isolated rat adipocytes [1]; leptin 2 nM 16.5 h, insulin 1 nM) was 1916 dpm, the “glucose transport, uptake” value (isolated rat adipocytes [1]; leptin 2 nM 16.5 h, insulin 2 nM) was 2680 dpm and the “glucose transport, uptake” value (isolated rat adipocytes [1]; leptin 2 nM 16.5 h, insulin 5 nM) was 4323 dpm. For the same substance, the “glucose transport, uptake” value (isolated rat adipocytes [1]; leptin 2 nM 16.5 h, insulin 10 nM) was 6107 dpm, the “glucose transport, uptake” value (isolated rat adipocytes [1]; leptin 2 nM 16.5 h, insulin 50 nM) was 7032 dpm and the “glucose transport, uptake” value (isolated rat adipocytes [1]; leptin 2 nM 16.5 h, no insulin (basal)) was 688 dpm. For the same substance, the “Glucose Transport … (stimulated/basal)” value (isolated rat adipocytes [1]; leptin 3 nM 15 h) was 7.4, the “glucose transport, uptake” value (isolated rat adipocytes [1]; leptin 5 nM 16.5 h, insulin 0.02 nM) was 734 dpm and the “glucose transport, uptake” value (isolated rat adipocytes [1]; leptin 5 nM 16.5 h, insulin 0.05 nM) was 798 dpm. The “glucose transport, uptake” value (isolated rat adipocytes [1]; leptin 5 nM 16.5 h, insulin 0.1 nM) was 883 dpm, the “glucose transport, uptake” value (isolated rat adipocytes [1]; leptin 5 nM 16.5 h, insulin 0.2 nM) was 923 dpm and the “glucose transport, uptake” value (isolated rat adipocytes [1]; leptin 5 nM 16.5 h, insulin 0.5 nM) was 1167 dpm. The “glucose transport, uptake” value (isolated rat adipocytes [1]; leptin 5 nM 16.5 h, insulin 1 nM) was 1583 dpm, the “glucose transport, uptake” value (isolated rat adipocytes [1]; leptin 5 nM 16.5 h, insulin 2 nM) was 2140 dpm and the “glucose transport, uptake” value (isolated rat adipocytes [1]; leptin 5 nM 16.5 h, insulin 5 nM) was 2950 dpm. The “glucose transport, uptake” value (isolated rat adipocytes [1]; leptin 5 nM 16.5 h, insulin 10 nM) was 3682 dpm, the “glucose transport, uptake” value (isolated rat adipocytes [1]; leptin 5 nM 16.5 h, insulin 50 nM) was 4031 dpm and the “glucose transport, uptake” value (isolated rat adipocytes [1]; leptin 5 nM 16.5 h, no insulin (basal)) was 712 dpm. The “Glucose Transport … (stimulated/basal)” value (isolated rat adipocytes [1]; leptin 10 nM 15 h) was 3.5, the “glucose transport, uptake” value (isolated rat adipocytes [1]; leptin 10 nM 16.5 h, insulin 0.02 nM) was 773 dpm and the “glucose transport, uptake” value (isolated rat adipocytes [1]; leptin 10 nM 16.5 h, insulin 0.05 nM) was 802 dpm. The “glucose transport, uptake” value (isolated rat adipocytes [1]; leptin 10 nM 16.5 h, insulin 0.1 nM) was 856 dpm, the “glucose transport, uptake” value (isolated rat adipocytes [1]; leptin 10 nM 16.5 h, insulin 0.2 nM) was 941 dpm and the “glucose transport, uptake” value (isolated rat adipocytes [1]; leptin 10 nM 16.5 h, insulin 0.5 nM) was 1209 dpm. For the same substance, the “glucose transport, uptake” value (isolated rat adipocytes [1]; leptin 10 nM 16.5 h, insulin 1 nM) was 1573 dpm, the “glucose transport, uptake” value (isolated rat adipocytes [1]; leptin 10 nM 16.5 h, insulin 2 nM) was 2061 dpm and the “glucose transport, uptake” value (isolated rat adipocytes [1]; leptin 10 nM 16.5 h, insulin 5 nM) was 2476 dpm. The “glucose transport, uptake” value (isolated rat adipocytes [1]; leptin 10 nM 16.5 h, insulin 10 nM) was 2710 dpm, the “glucose transport, uptake” value (isolated rat adipocytes [1]; leptin 10 nM 16.5 h, insulin 50 nM) was 2967 dpm and the “glucose transport, uptake” value (isolated rat adipocytes [1]; leptin 10 nM 16.5 h, no insulin (basal)) was 755 dpm. For the same substance, the “Glucose Transport … (stimulated/basal)” value (isolated rat adipocytes [1]; leptin 30 nM 15 h) was 2.35, the “glucose transport, uptake” value (isolated rat adipocytes [1]; leptin 30 nM 16.5 h, insulin 0.02 nM) was 704 dpm and the “glucose transport, uptake” value (isolated rat adipocytes [1]; leptin 30 nM 16.5 h, insulin 0.05 nM) was 745 dpm. The “glucose transport, uptake” value (isolated rat adipocytes [1]; leptin 30 nM 16.5 h, insulin 0.1 nM) was 789 dpm, the “glucose transport, uptake” value (isolated rat adipocytes [1]; leptin 30 nM 16.5 h, insulin 0.2 nM) was 852 dpm and the “glucose transport, uptake” value (isolated rat adipocytes [1]; leptin 30 nM 16.5 h, insulin 0.5 nM) was 943 dpm. For the same substance, the “glucose transport, uptake” value (isolated rat adipocytes [1]; leptin 30 nM 16.5 h, insulin 1 nM) was 1183 dpm, the “glucose transport, uptake” value (isolated rat adipocytes [1]; leptin 30 nM 16.5 h, insulin 2 nM) was 1374 dpm and the “glucose transport, uptake” value (isolated rat adipocytes [1]; leptin 30 nM 16.5 h, insulin 5 nM) was 1782 dpm. The “glucose transport, uptake” value (isolated rat adipocytes [1]; leptin 30 nM 16.5 h, insulin 10 nM) was 1972 dpm, the “glucose transport, uptake” value (isolated rat adipocytes [1]; leptin 30 nM 16.5 h, insulin 50 nM) was 2114 dpm and the “glucose transport, uptake” value (isolated rat adipocytes [1]; leptin 30 nM 16.5 h, no insulin (basal)) was 688 dpm. For the same substance, the “Glucose Transport … (stimulated/basal)” value (isolated rat adipocytes [1]; leptin 100 nM 15 h) was 1.5, the “glucose transport, uptake” value (isolated rat adipocytes [1]; leptin 100 nM 16.5 h, insulin 0.02 nM) was 766 dpm and the “glucose transport, uptake” value (isolated rat adipocytes [1]; leptin 100 nM 16.5 h, insulin 0.05 nM) was 780 dpm. For the same substance, the “glucose transport, uptake” value (isolated rat adipocytes [1]; leptin 100 nM 16.5 h, insulin 0.1 nM) was 803 dpm, the “glucose transport, uptake” value (isolated rat adipocytes [1]; leptin 100 nM 16.5 h, insulin 0.2 nM) was 813 dpm and the “glucose transport, uptake” value (isolated rat adipocytes [1]; leptin 100 nM 16.5 h, insulin 0.5 nM) was 883 dpm. The “glucose transport, uptake” value (isolated rat adipocytes [1]; leptin 100 nM 16.5 h, insulin 1 nM) was 896 dpm, the “glucose transport, uptake” value (isolated rat adipocytes [1]; leptin 100 nM 16.5 h, insulin 2 nM) was 1034 dpm and the “glucose transport, uptake” value (isolated rat adipocytes [1]; leptin 100 nM 16.5 h, insulin 5 nM) was 1205 dpm. The “glucose transport, uptake” value (isolated rat adipocytes [1]; leptin 100 nM 16.5 h, insulin 10 nM) was 1451 dpm, the “glucose transport, uptake” value (isolated rat adipocytes [1]; leptin 100 nM 16.5 h, insulin 50 nM) was 1723 dpm and the “glucose transport, uptake” value (isolated rat adipocytes [1]; leptin 100 nM 16.5 h, no insulin (basal)) was 747 dpm. For the same substance, the “insulin sensitivity of stimulation of glucose transport” value (isolated rat adipocytes [1]; leptin, basal values unaffected) was “drastically reduced”, the “insulin sensitivity of stimulation of glycogenesis” value (isolated rat adipocytes [2]) was “drastically reduced” and the nutrient intake (ob/ob mice) was “reduction in nutrient intake”. For the same substance, the weight (ob/ob mice) was “decrease in weight”, the “insulin-induced phosphorylation of the insulin receptor and of IRS-1” value [3] was “decreases” and the glucose transport (C2C12 mouse myotubes) was “stimulated”. For the same substance, the glycogen synthesis (C2C12 mouse myotubes) was “stimulated”.
